From ChEMBL document CHEMBL1629647, “Preclinical evaluation of GS-9160, a novel inhibitor of human immunodeficiency virus type 1 integrase” (Antimicrob Agents Chemother, 2009)

Columns and labels:
[1] = test system: Human immunodeficiency virus 1; assay: Selectivity ratio of EC50 for antiviral activity against HIV1 harboring L74M and E92V mutation in catalytic core domain of integrase to EC50 for antiviral activity against wild-type HIV1 3B; type: functional
[2] = test system: Human immunodeficiency virus 1; assay: Selectivity ratio of EC50 for antiviral activity against 3TC-resistant HIV1 selected after 4 passages to EC50 for antiviral activity against wild-type HIV1 3B; type: functional
[3] = test system: Human immunodeficiency virus 1; assay: Selectivity ratio of EC50 for antiviral activity against HIV1 harboring N155S mutation in catalytic core domain of integrase to EC50 for antiviral activity against wild-type HIV1 3B; type: functional
[4] = test system: Human immunodeficiency virus 1; assay: Selectivity ratio of EC50 for antiviral activity against HIV1 harboring G140S and Q148H mutation in catalytic core domain of integrase to EC50 for antiviral activity against wild-type HIV1 3B; type: functional
[5] = Cytotoxicity against human T lymphocyte cells uninfected by XTT method in presence of 10% FBS
[6] = test system: Human immunodeficiency virus 1; assay: Antiviral activity against 0.02 MOI HIV1 3B infected in human MT-2 cells by two fold dilution method in presence of 100% human serum; type: functional, organism-based; conditions: Human immunodeficiency virus 1, 3B, MT2
[7] = test system: Human immunodeficiency virus 1; assay: Selectivity ratio of EC50 for antiviral activity against HIV1 harboring L74M mutation in catalytic core domain of integrase to EC50 for antiviral activity against wild-type HIV1 3B; type: functional
[8] = Cytotoxicity against human uninfected MT2 cells by three fold dilution method in presence of 10% FBS
[9] = test system: Human immunodeficiency virus 1; assay: Antiviral activity against HIV1 infected in SupT1 cells assessed as accumulation of integrated junction products after 48 hrs by Alu-PCR assay; type: functional, organism-based; conditions: Human immunodeficiency virus 1, SUP-T1, 48 h
[10] = target: Human immunodeficiency virus type 1 integrase (Human immunodeficiency virus 1, UniProt Q7ZJM1); assay: Inhibition of HIV1 integrase strand transfer activity
Chain of Human immunodeficiency virus type 1 integrase (Q7ZJM1 whole entry, the tested form may be a part): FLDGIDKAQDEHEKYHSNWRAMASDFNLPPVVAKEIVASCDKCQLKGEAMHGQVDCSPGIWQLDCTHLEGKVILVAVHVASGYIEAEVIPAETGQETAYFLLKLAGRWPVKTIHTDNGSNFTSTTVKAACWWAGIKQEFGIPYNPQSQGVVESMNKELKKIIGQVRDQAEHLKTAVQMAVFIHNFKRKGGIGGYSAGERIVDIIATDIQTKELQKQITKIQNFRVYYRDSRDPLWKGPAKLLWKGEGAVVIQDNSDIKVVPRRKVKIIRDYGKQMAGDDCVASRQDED

[11] = test system: Human immunodeficiency virus 1; assay: Selectivity ratio of EC50 for antiviral activity against HIV1 harboring G140S mutation in catalytic core domain of integrase to EC50 for antiviral activity against wild-type HIV1 3B; type: functional
[12] = test system: Human immunodeficiency virus 1; assay: Antiviral activity against 0.01 MOI HIV1 3B infected in human MT-2 cells by two fold dilution method in presence of 100% human serum; type: functional, organism-based; conditions: Human immunodeficiency virus 1, 3B, MT2
[13] = test system: Human immunodeficiency virus 1; assay: Antiviral activity against HIV1 3B infected in human MT-4 cells by two fold dilution method in presence of 10% FBS; type: functional, organism-based; conditions: Human immunodeficiency virus 1, 3B, MT4

Question: Which results are given for `O=C(NCc1ccc(F)cc1)c1nc(N2CCCCS2(=O)=O)c2cccnc2c1O`?
Answer: Ratio EC50 [1]: 39; Ratio EC50 [2]: 1.3; Ratio EC50 [3]: 21; Ratio EC50 [4]: 478; CC50 [5]: 2100 nM; EC50 [6]: 96 nM; Ratio EC50 [7]: 1; CC50 [8]: 3000 nM; EC50 [9]: 1.3 nM; IC50 [10]: 44 nM; Ratio EC50 [11]: 2; EC50 [12]: 41 nM

Question: With `CN(c1c2c(c(O)c3ncccc13)C(=O)N(Cc1ccc(F)cc1)C2)S(C)(=O)=O` as the compound, how does the “Ratio EC50” value [1] read?
Answer: Its value is 67.

Question: What about the “Ratio EC50” value [2] of the same compound?
Answer: Its value is 0.5.

Question: And the “Ratio EC50” value [3]?
Answer: The value was 12.

Question: And the “Ratio EC50” value [4]?
Answer: The value was 1132.

Question: And the EC50 [13]?
Answer: Its EC50 is 0.7 nM.

Question: And the CC50 [5]?
Answer: The CC50 was 4000 nM.

Question: What about the EC50 [6] of the same compound?
Answer: The EC50 was 19 nM.

Question: What about the “Ratio EC50” value [7] of the same compound?
Answer: Its value is 1.

Question: What about the CC50 [8] of the same compound?
Answer: Its CC50 is 4000 nM.

Question: What about the EC50 [9] of the same compound?
Answer: The EC50 was 0.9 nM.

Question: And the IC50 [10]?
Answer: The IC50 was 28 nM.

Question: And the “Ratio EC50” value [11]?
Answer: The value was 2.

Question: And the EC50 [12]?
Answer: The EC50 was 12 nM.
